We go through 11 compounds from US6022969A, “Compositions and methods for treating mast-cell mediated conditions” (AXYS Pharmaceuticals, Inc., priority 1995, dated 2000).

For orientation: Ki means the equilibrium dissociation constant of an inhibitor or competing ligand from its target.

Assay [1] has as its system antigen-challenged sheep. Kind of assay: Allergic sheep model of asthma: Specific Lung Resistance (SRL) after antigen challenge. The format is in vivo. How it is done: (§1) The initial asthmatic response can be evaluated in guinea pigs, and dogs, and particularly, with a basenji-greyhound cross strain which develops nonspecific airway hyperresponsiveness to numerous nonallergenic substances, such as methacholine and citric acid. […] In dual responding animals, the initial asthmatic response (IAR) is followed by a late asthmatic response (LAR) at 6-8 hours post-exposure.
The allergic sheep model (see below) was used to evaluate the potential antiasthmatic effects of the compounds of the present invention.
(§2) The allergic sheep model of asthma was employed for he in vivo evaluation of the compounds of the invention as antiasthmatics. These methods have been published previously (see Abraham et al. (1983) Am. Rev. Respir. Dis. 128:839-844; Allegra et al. (1983) J. Appl. Physiol. 55:726-730; Russi et al. (1985) J. Appl. Physiol. 59:1416-1422; Soler et al. (1989) J. Appl. Physiol. 67:406-413. Each sheep serves as its own control. Body weights for these animals ranged from 20-50 kilograms.
The peak early response was taken as the average of the maximum values occurring immediately post-challenge. Peak late responses were calculated by averaging the maximum response values obtained for each animal within the 6-8 hour time period. This approach is conservative and eliminates the possible reduction in the late response due simply to averaging.
Three doses of the compound (2 mg in 10 mL water) were administered to sheep through an intergastric tube 1 hr before challenge, 4 hours post-challenge, and 24 hours post-challenge.

Assay [2] relates to tryptase. Nature of the assay: In vitro tryptase inhibition assay (hydrolysis of tosyl-Gly-Pro-Lys-p-nitroanilide). The format is biochemical, human. The conditions noted are these: for Ki: tosyl-Gly-Pro-Lys-p-nitroanilide 0.5 mM, pH 8.2, 1 h pre-incubation, room temperature. The method, then: The compounds to be assayed (approximately 1 mg) were dissolved in 200 μL dimethylsulfoxide (DMSO) and diluted 1:10 into buffer containing 50 millimolar (mM) Tris-HCl (pH 8.2), 100 mM sodium chloride, and 0.05% polyoxyethylenesorbitan monolaurate (Tween-20®, available from Sigma, St. Louis, Mo.). Seven additional threefold dilutions were made from the initial dilution into the same buffer supplemented with 10% DMSO. Aliquots (50 microliters, μL) from each of the eight dilutions in the series were transferred to individual wells in a 96-well U-bottom microtiter plate. 25 μL of a stock solution of tryptase was added to each well and the samples were mixed and incubated for one hour at room temperature (tryptase was purified from human lung and skin tissue preparations, HMC-1 (human mast cell line) and also obtained from commercial sources (ICN Biomedicals, Irvine, Calif.; Athens Research & Technology, Athens, Ga.)). […] The tryptase solution was prepared by placing 60 μg/mL of tryptase into solution with 10 mM MES (2-[N-Morpholino]ethane sulfonic acid) containing 2 mM CaCl2, 20% glycerol and 50 μg/mL heparin. The enzyme reaction was initiated with the addition of the synthetic tripeptide substrate, tosyl-Gly-Pro-Lys-p-nitroanilide (available from Sigma, 25 μL; 0.5 mM final concentration).
However, Ki ' varies with the enzyme concentration used in the enzyme assay. […] The y-intercept of a replot of IC50 (ordinate) versus tryptase concentration (abscissa) produces a value for Ki '.
The inhibition constants (Ki ', micromolar (μM)) were determined for the compounds of the present invention.

The test system of assay [3] is antigen-challenged sheep. Nature of the assay: Allergic sheep model of asthma: airway hyperresponsiveness to carbachol (PC400) 24 hours after antigen challenge. Type of assay: in vivo. How it is done:
as §1, §2
Twenty-four hours after antigen challenge in both the control and drug trial, the sheep developed airway hyperresponsiveness. Airway hyperresponsiveness is expressed as PC400, the concentration of carbachol that causes a 400% increase in SRL; therefore, a decrease in PC400 indicates hyperresponsiveness. […] The number of breath units fell to 12 for those animals in the control group.

Turning to `N=C(N)Nc1ccc(CNC(=O)N2CCN(C(=O)O[C@H]3CCC[C@@H](OC(=O)N4CCN(C(=O)NCc5ccc(NC(=N)N)cc5)CC4)CCC3)CC2)cc1` [Compound 3, cis-1,5-Cyclooctylene bis[4-(4-guanidinobenzylcarbamoyl)-1-piperazinecarboxylate]], the “early and late responses to antigen challenge, SRL (aerosol)” value in assay [1] (Compound 3: aerosol 50 μg 0.5 h before, 4 h and 24 h after challenge, n=3 (FIG. 1), Compound 2: aerosol 3 x 0.1 mg (FIG. 5)) is “significant attenuation of the early and late responses to the antigen challenge”. Also, the “early and late phase response to antigen challenge, SRL (aerosol pretreatment)” value in assay [1] (aerosol predosing 0.5 mg/day x 3 days plus 0.5 mg 0.5 h before challenge (FIG. 7)) is “significant attenuation of early and late phase response to antigen challenge”. In assay [1] (intragastric 2 mg in 10 mL water 1 h before, 4 h and 24 h post-challenge, untreated about 250), the “early phase SRL (oral)” value is “about 175”. Also, the “late phase SRL (oral)” value in assay [1] (intragastric 2 mg in 10 mL water 1 h before, 4 h and 24 h post-challenge, untreated over 200) was “about 50”. For the same compound, in assay [1] (oral, 3 x 2 mg), the “anti-asthmatic properties when delivered orally” value is given as “significant anti-asthmatic properties when delivered orally”. For the same compound, the “type of tryptase inhibition” value in assay [2] (apparent affinity comparable to enzyme concentration) is “tight binding inhibitor”. Besides, the “airway function in antigen challenged sheep (aerosol)” value in assay [3] (aerosol 3 x 50 μg (FIG. 2)) is “significant improvement in airway function”. In addition, in assay [3] (aerosol 3 x 50 μg, 24 h after challenge, baseline 32, control 12 (FIG. 2)), the “airway hyperresponsiveness, PC400 (aerosol)” value is ~32 breath units. For the same compound, the “airway function / PC400 (aerosol pretreatment)” value in assay [3] (aerosol predosing 0.5 mg/day x 3 days plus 0.5 mg 0.5 h before challenge (FIG. 8)) is listed as “significant improvement in airway function”. In assay [3] (aerosol, 24 h after antigen challenge, Compound 3 3 x 50 μg (FIG. 2), Compound 2 3 x 0.1 mg (FIG. 6)), the “onset of hyperresponsiveness (PC400, aerosol), result in words” value is listed as “block the onset of hyperresponsiveness”.

Compound `N=C(N)Nc1ccc(CNC(=O)N2CCN(C(=O)OCC34CCC(COC(=O)N5CCN(C(=O)NCc6ccc(NC(=N)N)cc6)CC5)(CC3)CC4)CC2)cc1` [Compound 47, 1,4-bicyclo[2.2.2]octylenedimethylene bis[4-(4-guanidinobenzylcarbamoyl)-1-piperazinecarboxylate]] yielded a Ki in assay [2] of 0.42 nM. In other words, the sub-nanomolar range.

On to `N=C(N)Nc1ccc(C(=O)NCC2CCN(C(=O)O[C@H]3CCC[C@@H](OC(=O)N4CCC(CNC(=O)c5ccc(NC(=N)N)cc5)CC4)CCC3)CC2)cc1` [Compound 48, cis-1,5-cyclooctylene bis[4-(4-guanidinophenylcarbonylaminomethyl)-1-piperidinecarboxylate]], for which, in assay [2], affinity was put at a Ki of 2300 nM.

As for `N=C(N)Nc1ccc(CNC(=O)N2CCN(C(=O)OC[C@H]3CC[C@@H](COC(=O)N4CCN(C(=O)NCc5ccc(NC(=N)N)cc5)CC4)CC3)CC2)cc1` [Compound 49, cis-1,4-cyclohexylenedimethylene bis[4-(4-guanidinobenzylcarbamoyl)-1-piperazinecarboxylate]], the Ki in assay [2] was found to be 3.4 nM.

In assay [2], `N=C(N)Nc1ccc(CNC(=O)N2CCN(C(=O)O[C@H]3CCC[C@@H](OC(=O)N4CCN(C(=O)NCCCCCN)CC4)CCC3)CC2)cc1` [Compound 50, cis-5-[4-(5-aminopentylcarbamoyl)piperazin-1-ylformyloxy]cyclooctyl 4-(4-guanidinobenzylcarbamoyl)-1-piperazinecarboxylate] returned a Ki of 0.45 nM.

Compound `N=C(N)Nc1ccc(CNC(=O)N2CCN(C(=O)O[C@H]3CCC[C@@H](OC(=O)N4CCN(C(=O)NCCCCN)CC4)CCC3)CC2)cc1` [Compound 51, cis-5-[4-(4-aminobutylcarbamoyl)piperazin-1-ylformyloxy]cyclooctyl 4-(4-guanidinobenzylcarbamoyl)-1-piperazinecarboxylate] showed an inhibition constant Ki in assay [2] of 3.8 nM. This Ki is about 8.4-fold higher than that of the compound before.

With `N=C(N)Nc1ccc(CNC(=O)N2CCN(C(=O)O[C@H]3CCC[C@@H](OC(=O)N4CCN(C(=O)NC[C@H]5CC[C@H](CN)CC5)CC4)CCC3)CC2)cc1` [Compound 52], in assay [2], the affinity, expressed as Ki, was 0.48 nM.

`N=C(N)Nc1ccc(CNC(=O)N2CCN(C(=O)O[C@H]3CCC[C@@H](OC(=O)N4CCN(C(=O)NCCCN)CC4)CCC3)CC2)cc1` [Compound 53, cis-5-[4-(3-aminopropylcarbamoyl)piperazin-1-ylformyloxy]cyclooctyl 4-(4-guanidinobenzylcarbamoyl)-1-piperazinecarboxylate] registered a Ki in assay [2] of 44 nM. Against the preceding compound, the Ki is about 92-fold higher.

In turn, `N=C(N)Nc1ccc(CNC(=O)N2CCN(C(=O)O[C@H]3CCC[C@@H](OC(=O)N4CCN(C(=O)NCCCCCCN)CC4)CCC3)CC2)cc1` [Compound 54, cis-5-[4-(6-aminohexylcarbamoyl)piperazin-1-ylformyloxy]cyclooctyl 4-(4-guanidinobenzylcarbamoyl)-1-piperazinecarboxylate] gave a Ki in assay [2] of 20 nM.

In assay [2], “cis-1,5-tetracyclo[3.3.1.1^3,7 ]decylenedimethylene bis[4-(4-guanidinobenzylcarbamoyl)-1-piperazinecarboxaldehyde] [Compound 32]” registered a Ki of 12.2 nM.

With “trans-1,4-cyclohexylene bis[4-(4-guanidinobenzylcarbamoyl)-1-piperazinecarboxaldehyde] [Compound 21]”, the affinity in assay [2] corresponds to a Ki of 60.9 nM.
